Test results as given in PubChem BioAssay AID1996.
≈ marks a conversion by molar mass, not a printed value.

details: buffer; pH 7.4; 200.0 µM

Row | Structure (SMILES) | solubility kinetic
1 | Cc1nn(-c2ccccc2)c2[nH]c(=O)cc(C(F)F)c12 | > 41.3 µg/mL
2 | CC(=O)c1ccc(NC(=O)C[n+]2ccccc2)cc1.[Cl-] | > 43.6 µg/mL
3 | CCC1(C)CC(=O)N(c2ccc(F)c(Cl)c2)C(=O)C1 | 14 µg/mL (≈ 49.3 µM)
4 | Cc1cccc(NC(=O)CCc2ccccc2)c1 | 35 µg/mL (≈ 146 µM)
5 | O=C(Cn1cc(C(=O)C2CC2)c2ccccc21)Nc1ccccc1Cl | < 0.4 µg/mL
6 | COC(=O)c1cccnc1NC(=S)NC1CCCCC1 | 0.9 µg/mL (≈ 3.07 µM)
7 | CCOc1cc(C=O)ccc1OCc1cc(=O)n2cc(C)ccc2n1 | 4.4 µg/mL (≈ 13 µM)
8 | Cc1ccc(CSCc2ccc(C(=O)NCCC(C)C)o2)cc1 | 2.2 µg/mL (≈ 6.64 µM)
9 | O=C1NC(=O)/C(=C/c2ccc(-c3cccc([N+](=O)[O-])c3)o2)S1 | 3.8 µg/mL (≈ 12 µM)
10 | COc1ccc(N(C=O)C(=S)SC)cc1 | 2.7 µg/mL (≈ 11.2 µM)
11 | O=C1C(Cc2ccccc2O)NC(=S)N1c1ccccc1 (configuration not stated) | 44.6 µg/mL (≈ 149 µM)
12 | COc1ccc(SCC2CN(C)CCC2c2ccc(F)cc2)cc1.Cl (configuration not stated) | 32.5 µg/mL
13 | CC(C)CCNC(=O)c1cc2c(s1)-c1ccccc1S(=O)(=O)C2 | 2.1 µg/mL (≈ 6.01 µM)
14 | COCC(C)NC(=O)c1cc(OC)cc(OC)c1 (configuration not stated) | > 38 µg/mL
15 | COc1nc(Nc2ccccc2F)nc(OC)n1 | > 37.5 µg/mL
16 | O=[N+]([O-])c1ccccc1S(=O)(=O)Nc1ncccn1 | > 42 µg/mL
17 | CN(Cc1nc(-c2cccs2)no1)CC(O)c1ccccc1 (configuration not stated) | 42.8 µg/mL (≈ 136 µM)
18 | O=C(NN=Cc1ccc(O)cc1)c1ccccc1NS(=O)(=O)c1cccs1 | > 60.2 µg/mL
19 | CCc1cc2cc(C)cc(C)c2nc1Cl | < 0.5 µg/mL
20 | Cl.Fc1cccc(C2NCc3ccccc3-n3cccc32)c1 (configuration not stated) | 30.6 µg/mL
21 | CC1(C)CC(=O)C2=C(C1)OC(N)=C(C#N)C2c1ccc[nH]1 (configuration not stated) | > 42.5 µg/mL
22 | Cl.O=C1CC[C@@]2(O)[C@H]3Cc4ccc(O)c5c4[C@@]2(CCN3CC2CC2)[C@H]1O5 | > 56.7 µg/mL
23 | Cc1cnc(C(=O)OCC(=O)NC(C)c2ccccc2)cn1 (configuration not stated) | > 44.9 µg/mL
24 | Cc1ccc(S(=O)(=O)Nc2ccc(Cl)cn2)cc1 | 28.3 µg/mL (≈ 100 µM)
25 | CN1CCN(C(=O)/C=C/c2ccccc2)CC1 | > 34.5 µg/mL

Row | Structure (SMILES) | solubility kinetic
26 | OCCC1CN(C2CCC2)CCN1Cc1ccc(F)c(F)c1 (configuration not stated) | 43 µg/mL (≈ 139 µM)
27 | COc1ccc(-n2c(=S)[nH]c(=O)c3cccnc32)cc1 | 11 µg/mL (≈ 38.6 µM)
28 | CN1CCC(NC(=S)NC2CC2)CC1 | > 32 µg/mL
29 | O=C(Nc1nccs1)c1ccc(COc2ccccc2)o1 | < 0.3 µg/mL
30 | CC(NC(=O)CN(C)CC(=O)Nc1cccc(F)c1)c1ccccc1 (configuration not stated) | > 51.5 µg/mL
31 | O=C(NCc1ccco1)c1cc([N+](=O)[O-])ccc1Cl | 28.3 µg/mL (≈ 101 µM)
32 | CCCN(CC(=O)Nc1ccccc1OC)C(=O)c1nc2nc(C)ccn2n1 | > 57.4 µg/mL
33 | Cl.NOCC(=O)O | > 16.4 µg/mL
34 | c1ccc(-c2nc3cccnc3nc2-c2ccccc2)cc1 | 33.1 µg/mL (≈ 117 µM)
35 | CC(Sc1ccc([N+](=O)[O-])cn1)C(=O)Nc1nccs1 (configuration not stated) | 5 µg/mL (≈ 16.1 µM)
36 | C1CNC(C23CC4CC(CC(C4)C2)C3)=N1 | > 30.6 µg/mL
37 | Cc1cc(NC(=O)C(=O)NCc2cccc(Cl)c2)no1 | 3.2 µg/mL (≈ 10.9 µM)
38 | Nc1ccccc1SCC(=O)Nc1ccc2c(c1)OCO2 | > 45.4 µg/mL
39 | COc1ccc(CNC(=O)CC23CC4CC(CC(C4)C2)C3)cc1 | 1.6 µg/mL (≈ 5.1 µM)
40 | c1ccc(Nc2nc(-c3ccccc3)ns2)cc1 | < 0.2 µg/mL
41 | CN1CCN(C(=O)c2cc([N+](=O)[O-])cc([N+](=O)[O-])c2)CC1 | 31.4 µg/mL (≈ 107 µM)
42 | CCOC(=O)C(=CNc1ccc(Cl)cn1)C(=O)OCC | 1.2 µg/mL (≈ 4.02 µM)
43 | COCCNC(=O)[C@@H]1CSC2c3ccccc3C(=O)N21 (some centres not stated) | > 43.9 µg/mL
44 | Cc1csc(=O)n1CC(=O)OCC(=O)NCc1ccccc1 | > 48.1 µg/mL
45 | Cc1cccc(OCc2nc3ccccc3n2C)c1.Cl | 30.4 µg/mL
46 | O=C(CCN1C(=O)C2C3CCC(C3)C2C1=O)OCC(=O)c1ccccc1 (configuration not stated) | 52.9 µg/mL (≈ 149 µM)
47 | CC(C)[C@H](Nc1ncnc2c1oc1ccccc12)C(=O)O | > 42.8 µg/mL
48 | COc1ccc(Cl)cc1NC(=S)NC1CCCC1 | 3 µg/mL (≈ 10.5 µM)
49 | Cc1c(C)n(O)c2ccc3nonc3c12 | > 30.5 µg/mL
50 | COP(=O)(OC)C(Nc1ccc(Cl)cc1)c1ccccc1 (configuration not stated) | > 48.9 µg/mL

Row | Structure (SMILES) | solubility kinetic
51 | CN(C)S(=O)(=O)c1cccc(NC(=O)Cc2ccsc2)c1 | > 48.7 µg/mL
52 | COc1ccc(N/C(N)=N/c2nc(C)cc(=O)[nH]2)cc1 | 6.8 µg/mL (≈ 24.9 µM)
53 | CCN(Cc1cc(=O)[nH]c2ccccc12)C(=O)C(C)C | > 40.9 µg/mL
54 | N#Cc1c(-c2ccncc2)c2c([nH]c1=O)-c1ccccc1OC2 | 14.9 µg/mL (≈ 49.5 µM)
55 | CCc1c(C)c2ccc(O)c(CN3CCCC3)c2oc1=O | 41.6 µg/mL (≈ 145 µM)
56 | CCOC(=O)N1CCN(C(=O)/C=C/c2ccc(OC)c(OC)c2)CC1 | 51.5 µg/mL (≈ 148 µM)
57 | O=C(COC(=O)c1ccc(N2CCCC2=O)cc1)c1ccccc1 | 3.7 µg/mL (≈ 11.4 µM)
58 | Fc1ccc(-c2cnc3n2CCCCC3)cc1 | > 34.5 µg/mL
59 | CCc1ccc2c(CN3CCC(C(=O)OC)CC3)cc(=O)oc2c1 | > 49.4 µg/mL
60 | CC1CCCC(NC(=O)CCC(=O)NCc2ccccc2)C1C (configuration not stated) | 44.7 µg/mL (≈ 141 µM)
61 | COc1ccc(OCCCCn2c(CO)nc3ccccc32)cc1 | 45.4 µg/mL (≈ 139 µM)
62 | COc1cc(C(=O)NC(=S)N(CCC#N)Cc2cccnc2)cc(OC)c1OC | 59.3 µg/mL (≈ 143 µM)
63 | CC1(C)CC(=O)c2c(Cc3ccccc3)noc2C1 | 33.4 µg/mL (≈ 131 µM)
64 | O=C(Nc1ccc(Cl)cc1)Nc1ccc(Oc2cccnc2)nc1 | 0.7 µg/mL (≈ 2.05 µM)
65 | O=C(CCCOC(=O)c1cccnc1Cl)c1ccc(Br)cc1 | 6.6 µg/mL (≈ 17.2 µM)
66 | C#CCOc1ccc2ccccc2c1/C=C(/C#N)c1ccc(C(=O)O)cc1 | 53 µg/mL (≈ 150 µM)
67 | CC(C)NC(=O)c1cc(-c2ccc3c(c2)OCO3)on1 | 17.9 µg/mL (≈ 65.3 µM)
68 | C=CCNC(=S)/N=c1/ccccn1C | > 31.1 µg/mL
69 | O=S(=O)(CCSc1ccc(C(F)(F)F)cn1)c1ccccc1 | 4.7 µg/mL (≈ 13.5 µM)
70 | CN(C)C(=O)c1cc(C(=O)c2c(F)cccc2F)c[nH]1 | > 41.7 µg/mL
71 | Cc1ccc(C(=O)C2=C(O)C(=O)N(Cc3ccco3)C2c2ccc(N(C)C)cc2)o1 (configuration not stated) | > 61 µg/mL
72 | Cc1ccccc1NC(=O)/C=C/c1cccs1 | 19.5 µg/mL (≈ 80.1 µM)
73 | Cc1sc2ncnc(Sc3ccccc3C(=O)O)c2c1C | 46.9 µg/mL (≈ 148 µM)
74 | Cc1nn(C)c(C)c1NS(=O)(=O)c1ccccc1Cl | > 45 µg/mL
75 | CN(c1ccccc1)S(=O)(=O)c1cccc(C(=O)NC2CCCC2)c1 | 47.3 µg/mL (≈ 132 µM)

Row | Structure (SMILES) | solubility kinetic
76 | COc1ccc(C(=O)N2CCCc3ccccc32)cc1Br | 26.4 µg/mL (≈ 76.3 µM)
77 | CCCSc1nc2c(c(=O)[nH]c(=O)n2C)n1Cc1ccccc1 | 1.6 µg/mL (≈ 4.84 µM)
78 | Cc1ccc(NC(=O)C2OCCc3ccccc32)cc1Cl (configuration not stated) | < 0.6 µg/mL
79 | Cn1cccc1C(=O)NC(=O)COC(=O)c1ccc(S(C)(=O)=O)c([N+](=O)[O-])c1 | 14.7 µg/mL (≈ 35.9 µM)
80 | Cc1cccc(NC(=S)NCCc2ccc(Cl)cc2)c1C | 0.6 µg/mL (≈ 1.88 µM)
81 | CCCc1cc(=O)[nH]c(SCCc2ccccc2)n1 | 17.4 µg/mL (≈ 63.4 µM)
82 | Cc1cc(=O)[nH]c(Nc2cccc(Br)c2)n1 | > 42 µg/mL
83 | O=C1NC(=O)C2(CCCCCCCCCCC2)N1 | 1.5 µg/mL (≈ 5.94 µM)
84 | CC1(c2ccc([N+](=O)[O-])cc2)NC(=O)NC1=O (configuration not stated) | > 35.3 µg/mL
85 | CC(C)(CC(=O)O)CC(=O)NCc1c(Cl)cccc1Oc1ccccc1 | > 56.4 µg/mL
86 | O=C(CSc1nc(C(F)(F)F)cc(=O)[nH]1)N1CCCC1 | > 46.1 µg/mL
87 | CC(=O)Nc1ccc(NC(=O)c2c(C)noc2C)cc1 | > 41 µg/mL
88 | Cc1cc2c(c(=O)o1)C(CCC1CCCCC1)C(C#N)=C(N)O2 (configuration not stated) | 8 µg/mL (≈ 25.4 µM)
89 | O=C(NC1CC2CCCC(C1)N2C(=O)Nc1ccccc1)c1ccccc1 (configuration not stated) | 4.6 µg/mL (≈ 12.7 µM)
90 | Cc1cc(OCCCn2ccnc2)cc(C(C)C)c1 | 23.3 µg/mL (≈ 90.2 µM)
91 | COc1cc(OC)nc(Oc2ccc(N)c(C)c2)n1 | > 39.2 µg/mL
92 | Cc1ccccc1C(=O)Nc1ccc2nc3n(c(=O)c2c1)CCCC3 | 37.5 µg/mL (≈ 112 µM)
93 | CN(C)c1ccc(C2N(C)C(=O)c3ccccc3N2C)cc1 (configuration not stated) | 40.9 µg/mL (≈ 138 µM)
94 | Cc1nc2ccc(C(=O)N3CCN(Cc4ccccc4)CC3)cc2[nH]1 | 49.7 µg/mL (≈ 149 µM)
95 | CC(=O)Nc1ccc(CC(=O)O)cc1 | > 29 µg/mL
96 | O=C(COC(=O)/C=C/c1cccc(F)c1)NC1CCCC1 | 7.8 µg/mL (≈ 26.8 µM)
97 | NS(=O)(=O)c1cnccc1Oc1cccc(Cl)c1 | > 42.7 µg/mL
98 | Cc1noc(C)c1C(=O)OCC(=O)N1CCc2ccccc21 | 4.8 µg/mL (≈ 16 µM)
99 | COC(=O)C(NC(C)=O)(Nc1cc(C)ccn1)C(F)(F)F (configuration not stated) | 40.7 µg/mL (≈ 133 µM)
100 | N/C(CCS(=O)(=O)c1ccc(Cl)cc1)=N\OC(=O)c1ccc(Cl)cc1 | 1.2 µg/mL (≈ 2.99 µM)

Row | Structure (SMILES) | solubility kinetic
101 | Fc1ccc(NC(=S)Nc2cccnc2)c(Cl)c1 | > 42.3 µg/mL
102 | CCN(CC)CCCNC(=S)Nc1ccc(Br)cc1 | > 51.6 µg/mL
103 | COc1ccccc1Cn1c(C)nc2ccccc21 | 37 µg/mL (≈ 147 µM)
104 | Cc1cccc(OCC(=O)Nc2ccccc2F)c1 | 13.4 µg/mL (≈ 51.7 µM)
105 | O=C(NCc1ccncc1)C1=NN(c2ccccc2)C(=O)CC1 | > 46.3 µg/mL
106 | Cc1ccc(NC(=O)Cn2cc(C(=O)C3CC3)c3ccccc32)cc1 | < 0.4 µg/mL
107 | O=Cc1c(NCCc2cccc(F)c2)c2ccccc2[nH]c1=O | 9.3 µg/mL (≈ 30 µM)
108 | Cl.c1ccc(CN2CCNCC2)nc1 | 30.1 µg/mL
109 | CCOc1ccc(CNc2ccc3c(c2)ncn3C(C)(C)C)cc1 | 46.3 µg/mL (≈ 143 µM)
110 | CCCc1nc2oc3ccccc3c(=O)c2c(=O)n1CCCOC | > 49.3 µg/mL
111 | CC(=O)c1c(C)[nH]c(C(=O)Nc2cc(F)ccc2C)c1C | 4.5 µg/mL (≈ 15.6 µM)
112 | COC(=O)c1sccc1NC(=O)Nc1ccc(C(C)=O)cc1 | 8.4 µg/mL (≈ 26.4 µM)
113 | CCn1c(=O)c(C(=O)Nc2ccc(C)cc2C)c(O)c2ccccc21 | < 0.4 µg/mL
114 | COc1ccccc1CC(=O)NCCc1c[nH]c2ccccc12 | 44.9 µg/mL (≈ 146 µM)
115 | CSc1nc2ncnc(N)c2[nH]1 | > 27.2 µg/mL
116 | Cc1cccc(Cl)c1OCCN1CCCC1.O=C(O)C(=O)O | > 49.5 µg/mL
117 | O=C1NC(=Nc2cccc(O)c2)S/C1=C\c1cccnc1 | 1.2 µg/mL (≈ 4.04 µM)
118 | COc1cccc(C(=S)N2CCCC2)c1OC | 35.3 µg/mL (≈ 140 µM)
119 | CC(=O)c1ccc(S(=O)(=O)N2CCCc3ccccc32)cc1 | 24.5 µg/mL (≈ 77.7 µM)
120 | COc1cc(C(=O)OC(C)C(=O)Nc2ccc3c(c2)OCCO3)cc(OC)c1OC (configuration not stated) | 7.2 µg/mL (≈ 17.2 µM)
121 | CC(=O)Nc1ccc(SCC(=O)Nc2ccc3c(c2)OCCO3)cc1 | > 53.8 µg/mL
122 | Cc1ccc(-c2nc(NCC3CCCO3)sc2C)cc1 (configuration not stated) | 24.2 µg/mL (≈ 83.9 µM)
